Measurements taken from US20210149304A1, “PHOTOSENSITIVE RESIN COMPOSITION, CURED FILM, ELEMENT COMPRISING CURED FILM, ORGANIC EL DISPLAY DEVICE COMPRISING CURED FILM, METHOD FOR PRODUCING CURED FILM, AND METHOD FOR PRODUCING ORGANIC EL DISPLAY DEVICE” (TORAY INDUSTRIES, INC., priority 2017, published 2021).

Test: physchem
Method: The acid dissociation constant (pKa) is a logarithmic value of the inverse number of the acid dissociation constant pKa in a dilute aqueous solution at 25° C. In cases of multistep dissociation, the dissociation constant in the first step (that is, pKa1) is employed.
In the compound (E2) having a phenolic hydroxyl group indicating an acid dissociation constant pKa of 6.0 to 9.5 at 25° C., the acid dissociation constant (pKa) is a logarithmic value of the inverse number of the acid dissociation constant in a dilute aqueous solution at 25° C. In cases of multistep dissociation, the dissociation constant in the first step (that is, pKa1) is employed. […] The acid dissociation constant pKa is preferably not less than 6.3, more preferably not less than 6.6, still more preferably not less than 7.0.

Row | SMILES | pKa | pKa (acid dissociation constant) | pKa (acid dissociation constant) (at 25° C., dilute aqueous solution, first step pKa1)
1 | Cc1cc(O)c(C(C)(C)C)cc1C(C)CC(c1cc(C(C)(C)C)c(O)cc1C)c1cc(C(C)(C)C)c(O)cc1C (stereo not drawn) [AO-30, 1,1,3-tris(2-methyl-4-hydroxy-5-tert-butylphenyl)butane] | 11.6 |  | 
2 | Cc1cc(CCC(=O)OCC(C)(C)C2OCC3(CO2)COC(C(C)(C)COC(=O)CCc2cc(C)c(O)c(C(C)(C)C)c2)OC3)cc(C(C)(C)C)c1O (stereo not drawn) [AO-80, 3,9-bis[1,1-dimethyl-2-[(3-tert-butyl-4-hydroxy-5-methylphenyl)propionyloxy]ethyl]-2,4,8,10-tetraoxaspiro[5.5]undecane] | 12 |  | 
3 | Oc1ccc(C(c2ccc(O)cc2)(C(F)(F)F)C(F)(F)F)cc1 [E(i), bisphenol AF] | 8.7 | 8.7 | 
4 | O=S(=O)(c1ccc(O)cc1)c1ccc(O)cc1 [E(ii), bisphenol S] |  |  | 7.6
5 | O=C(c1ccc(O)cc1)c1ccc(O)cc1 [E(iii), 4,4′-dihydroxybenzophenone] | 7.7 |  | 
6 | O=C(c1ccccc1O)c1ccccc1O [E(iv), 2,2′-dihydroxybenzophenone] | 7.3 |  | 
7 | Oc1ccc(C(F)(F)F)cc1 [E(v), 4-(trifluoromethyl)phenol] | 8.5 |  | 
8 | CC(c1ccc(O)cc1)(c1ccc(O)cc1)c1ccc(O)cc1 [E(vi), 1,1,1-tris(4-hydroxyphenyl)ethane] | 10 |  | 
